Experimental data as given in patent publication US9862704B2, “Oxindole derivatives carrying an amine-substituted piperidyl-acetidinyl substituent and use thereof for treating vasopressine-related diseases” (AbbVie Deutschland GmbH & Co. KG, priority 2013, dated 2018).

Experiments:
[1] = target: human vasopressin V1a receptor (Homo sapiens, UniProt P37288); assay: Vasopressin V1a receptor binding assay; settings: selectivity quotient, human V1a vs human V1b
[2] = target: T1, human vasopressin V1b receptor (Homo sapiens, UniProt P47901); assay: biochemical
T1 sequence (P47901 1-424): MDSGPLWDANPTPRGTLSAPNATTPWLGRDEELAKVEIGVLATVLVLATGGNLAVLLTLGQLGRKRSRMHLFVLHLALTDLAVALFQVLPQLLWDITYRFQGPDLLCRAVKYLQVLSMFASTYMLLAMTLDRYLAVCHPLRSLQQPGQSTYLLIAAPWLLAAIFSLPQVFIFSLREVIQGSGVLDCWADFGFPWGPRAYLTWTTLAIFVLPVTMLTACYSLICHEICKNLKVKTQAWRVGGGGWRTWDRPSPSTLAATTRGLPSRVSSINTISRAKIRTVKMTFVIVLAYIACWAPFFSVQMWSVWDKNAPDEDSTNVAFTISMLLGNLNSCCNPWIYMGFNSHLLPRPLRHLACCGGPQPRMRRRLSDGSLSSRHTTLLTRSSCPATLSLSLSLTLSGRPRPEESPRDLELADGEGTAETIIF

Sequence of human vasopressin V1a receptor (P37288 whole entry): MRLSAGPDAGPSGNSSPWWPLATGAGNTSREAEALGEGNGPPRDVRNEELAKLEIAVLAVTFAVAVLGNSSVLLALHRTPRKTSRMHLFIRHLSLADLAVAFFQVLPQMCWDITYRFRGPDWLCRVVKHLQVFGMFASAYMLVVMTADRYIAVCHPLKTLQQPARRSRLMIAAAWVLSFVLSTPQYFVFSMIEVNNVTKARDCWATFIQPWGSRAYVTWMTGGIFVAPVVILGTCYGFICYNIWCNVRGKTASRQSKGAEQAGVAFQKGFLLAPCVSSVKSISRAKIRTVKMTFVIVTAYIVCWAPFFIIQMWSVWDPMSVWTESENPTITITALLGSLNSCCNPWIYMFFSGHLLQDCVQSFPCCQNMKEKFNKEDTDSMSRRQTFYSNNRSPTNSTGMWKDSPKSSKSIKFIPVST

| Ki(hV1a)/Ki(hV1b) [1] | Ki [2] | SMILES |
| --- | --- | --- |
| +++ (>75) | 1 to 10 nM | CCOc1ncccc1[C@]1(NC(=O)N2CC(N3CCC(N4CCC4)CC3)C2)C(=O)N(S(=O)(=O)c2ccc(OC)cc2OC)c2ccc(C#N)cc21 [Example 7, (S)-3-(4-(azetidin-1-yl)piperidin-1-yl)-N-(5-cyano-1-((2,4-dimethoxyphenyl)sulfonyl)-3-(2-ethoxypyridin-3-yl)-2-oxoindolin-3-yl)azetidine-1-carboxamide] |
| – | < 1 nM | CCOc1ncccc1[C@]1(NC(=O)N2CC(N3CCC(N4CCCCC4)CC3)C2)C(=O)N(S(=O)(=O)c2ccc(OC)cc2OC)c2ccc(Cl)cc21 [Example 8, (S)-3-([1,4′-bipiperidin]-1′-yl)-N-(5-chloro-1-((2,4-dimethoxyphenyl)sulfonyl)-3-(2-ethoxypyridin-3-yl)-2-oxoindolin-3-yl)azetidine-1-carboxamide] |
| +++ (>75) | 1 to 10 nM | COc1ccc(S(=O)(=O)N2C(=O)[C@@](NC(=O)N3CC(N4CCC(N5CCCC5)CC4)C3)(c3cccnc3OC)c3cc(C#N)ccc32)c(OC)c1 [Example 6, (S)—N-(5-cyano-1-((2,4-dimethoxyphenyl)sulfonyl)-3-(2-methoxypyridin-3-yl)-2-oxoindolin-3-yl)-3-(4-(pyrrolidin-1-yl)piperidin-1-yl)azetidine-1-carboxamide] |
| +++ (>75) | < 1 nM | CCOc1ncccc1[C@]1(NC(=O)N2CC(N3CCC(N4CCCCC4)CC3)C2)C(=O)N(S(=O)(=O)c2ccc(OC)cc2OC)c2ccc(C#N)cc21 [Example 1, N-[(3S)-5-cyano-1-(2,4-dimethoxyphenyl)sulfonyl-3-(2-ethoxy-3-pyridyl)-2-oxoindolin-3-yl]-3-[4-(1-piperidyl)-1-piperidyl]azetidine-1-carboxamide] |
| +++ (>75) | < 1 nM | COc1ccc(S(=O)(=O)N2C(=O)[C@@](NC(=O)N3CC(N4CCC(N5CCCCC5)CC4)C3)(c3cccnc3OC)c3cc(C#N)ccc32)c(OC)c1 [Example 5, (S)-3-([1,4′-bipiperidin]-1′-yl)-N-(5-cyano-1-((2,4-dimethoxyphenyl)sulfonyl)-3-(2-methoxypyridin-3-yl)-2-oxoindolin-3-yl)azetidine-1-carboxamide] |
| +++ (>75) | 1 to 10 nM | CCOc1ncccc1[C@]1(NC(=O)N2CC(N3CCC(N(C)C)CC3)C2)C(=O)N(S(=O)(=O)c2ccc(OC)cc2OC)c2ccc(C#N)cc21 [Example 2, (S)—N-(5-cyano-1-((2,4-dimethoxyphenyl)sulfonyl)-3-(2-ethoxypyridin-3-yl)-2-oxoindolin-3-yl)-3-(4-(dimethylamino)piperidin-1-yl)azetidine-1-carboxamide] |
| +++ (>75) | 1 to 10 nM | CCOc1ncccc1[C@]1(NC(=O)N2CC(N3CCC(N(CC)CC)CC3)C2)C(=O)N(S(=O)(=O)c2ccc(OC)cc2OC)c2ccc(C#N)cc21 [Example 3, (S)—N-(5-cyano-1-((2,4-dimethoxyphenyl)sulfonyl)-3-(2-ethoxypyridin-3-yl)-2-oxoindolin-3-yl)-3-(4-(diethylamino)piperidin-1-yl)azetidine-1-carboxamide] |
| – | < 1 nM | CCOc1ncccc1[C@]1(NC(=O)N2CC(N3CCC(N4CCCC4)CC3)C2)C(=O)N(S(=O)(=O)c2ccc(OC)cc2OC)c2ccc(Cl)cc21 [Example 9, (S)—N-(5-chloro-1-((2,4-dimethoxyphenyl)sulfonyl)-3-(2-ethoxypyridin-3-yl)-2-oxoindolin-3-yl)-3-(4-(pyrrolidin-1-yl)piperidin-1-yl)azetidine-1-carboxamide] |
| +++ (>75) | 1 to 10 nM | CCOc1ncccc1[C@]1(NC(=O)N2CC(N3CCC(N4CCCC4)CC3)C2)C(=O)N(S(=O)(=O)c2ccc(OC)cc2OC)c2ccc(C#N)cc21 [Example 4, (S)—N-(5-cyano-1-((2,4-dimethoxyphenyl)sulfonyl)-3-(2-ethoxypyridin-3-yl)-2-oxoindolin-3-yl)-3-(4-(pyrrolidin-1-yl)piperidin-1-yl)azetidine-1-carboxamide] |
